Type in all cases: functional
For assay [1], the system named is Aeromonas veronii. Description: Antimicrobial activity against QnrS2-negative Aeromonas veronii CECT 4258 harboring GyrA Ser83 and ParC Ser80 mutant gene by Etest.
The test system of assay [2] is Aeromonas veronii. Description: Antimicrobial activity against QnrS2-negative Aeromonas veronii CECT 4260 harboring GyrA Ser83 and ParC Ser80 mutant gene by Etest.
The test system of assay [3] is Aeromonas veronii. Description: Antimicrobial activity against QnrS2-positive Aeromonas veronii A272 harboring GyrA Ile83 and ParC Ile80 mutant gene by Etest.
Assay [4] has as its system Escherichia coli. The experiment in a line: Antimicrobial activity against Escherichia coli J53 by Etest.
For assay [5], the system named is Escherichia coli. The experiment in a line: Antimicrobial activity against Escherichia coli J53 harboring QnrS2 and GyrA Ile83 and ParC Ile80 mutant gene by Etest.

Values after ≈ are worked out from the molar mass of the structure shown.

The values that follow come from ChEMBL document CHEMBL1275465, “Plasmid-mediated QnrS2 determinant from a clinical Aeromonas veronii isolate” (2008).

Usually MIC stands for the lowest concentration that inhibits growth of the organism. A high value points to weaker potency. With `O=C(O)c1cn(C2CC2)c2cc(N3CCNCC3)c(F)cc2c1=O` [CIPROFLOXACIN], the MIC in assay [1] was less than 0.02 µg/mL; in assay [2], less than 0.02 µg/mL; in assay [3], 8 µg/mL (≈ 24.1 µM); in assay [4], 0.023 µg/mL (≈ 0.0694 µM).

As for `CCn1cc(C(=O)O)c(=O)c2ccc(C)nc21` [NALIDIXIC ACID], the MIC in assay [1] was less than 0.25 µg/mL; in assay [2], less than 0.25 µg/mL; in assay [3], greater than 256 µg/mL; in assay [4], 4 µg/mL (≈ 17.2 µM); in assay [5], greater than 256 µg/mL.

In the case of `CCn1cc(C(=O)O)c(=O)c2cc(F)c(N3CCNCC3)cc21` [NORFLOXACIN], the MIC was less than 0.02 µg/mL in assay [1]; less than 0.02 µg/mL in assay [2]; 12 µg/mL (≈ 37.6 µM) in assay [3]; 0.19 µg/mL (≈ 0.595 µM) in assay [4]; 2 µg/mL (≈ 6.26 µM) in assay [5].
